{
  "source": "patent US20250195530A1",
  "about": "“POLQ INHIBITORS” (ASTRAZENECA AB, priority 2022, published 2025)",
  "tested_on": "DLD-1 BRCA2−/− cells",
  "assay": "Homologous recombination synthetic lethal inhibition of proliferation, DLD-1 BRCA2-/- (Cell Titre Glo 3D)",
  "format": "cell-based",
  "conditions": "Homo sapiens",
  "method_in_brief": "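DLD-1 BRCA2−/− (3,000 cells/mL) and parental DLD-1 (1,500 cells/mL) cells in phenol red-free RPMI 1640 with 10% FBS were exposed to a 10-point, three-fold compound series from 10 μM to 0.51 nM at 37 °C, 5% CO2. Medium and compound were replenished on day 6. CellTiter-Glo 3D luminescence was read on day 7 (DLD-1) or day 12 (BRCA2−/−), and IC50 was taken as 50% reduction of maximum signal.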",
  "key": {"[1]": {"conditions": "DLD-1, proliferation, luminescence, taken as DLD-1 BRCA2-/-, read-out: POLQ PD Prolif Lumin (converted)"}, "[2]": {"conditions": "DLD-1, first proliferation column (c5), DLD-1 BRCA2-/-, read-out: POLQ PD Prolif Lumin (converted)"}, "[3]": {"conditions": "DLD-1, DLD-1 BRCA2 −/− cells, mean, read-out: POLQ PD Prolif Lumin BRCA2 −/− mean pIC50 (converted)"}, "[4]": {"conditions": "DLD-1, first proliferation column, DLD-1 BRCA2-/-, read-out: POLQ PD Prolif Lumin (converted)"}, "[5]": {"conditions": "DLD-1, DLD-1 BRCA2 −/−, mean, read-out: POLQ PD Prolif Lumin BRCA2 −/− mean pIC50 (converted)"}, "[6]": {"conditions": "DLD-1, first proliferation column (c5), taken as DLD-1 BRCA2-/-, read-out: POLQ PD Prolif Lumin (converted)"}},
  "note": "Read-outs that look alike come from different tables or passages of the source.",
  "data": [
    {"compound": "Cc1ccnc(Cn2c(-c3ccc(C(=O)N4CCC[C@@H]4CO)cc3Cl)nc3c(OC4(C)CC4)ncnc32)c1", "note": "[Example T459, (R)-(3-chloro-4-(6-(1-methylcyclopropoxy)-9-((4-methylpyridin-2-yl)methyl)-9H-purin-8-yl)phenyl)(2-(hydroxymethyl)pyrrolidin-1-yl)methanone]", "values": [
      {"measurement": "IC50", "setting": "[1]", "value": 1260, "unit": "nM"}
    ]},
    {"compound": "CC1(Oc2ncnc3c2nc(-c2ccc(OCCN4C[C@@H]5C[C@H]4CN5)cc2Cl)n3Cc2cc(Cl)ccn2)CC1", "note": "[Example T487, 8-(4-(2-((1S,4S)-2,5-diazabicyclo[2.2.1]heptan-2-yl)ethoxy)-2-chlorophenyl)-9-((4-chloropyridin-2-yl)methyl)-6-(1-methylcyclopropoxy)-9H-purine]", "values": [
      {"measurement": "IC50", "setting": "[2]", "value": 398, "unit": "nM"}
    ]},
    {"compound": "CCC(CCOc1ccc(-c2nc3c(OC4(C)CC4)ncnc3n2Cc2cccc(Cl)c2)c(Cl)c1)C(=O)O", "note": "(racemic) [Example T441, 4-(3-chloro-4-(9-(3-chlorobenzyl)-6-(1-methylcyclopropoxy)-9H-purin-8-yl)phenoxy)-2-ethylbutanoic acid]", "values": [
      {"measurement": "IC50", "setting": "[1]", "value": 158, "unit": "nM"}
    ]},
    {"compound": "CCC(=O)N1CC(Oc2ccc(-c3nc4c(OC5(C)CC5)ncnc4n3Cc3cc(C)ccn3)c(Cl)c2)C1", "note": "[Example T471, 1-(3-(3-chloro-4-(6-(1-methylcyclopropoxy)-9-((4-methylpyridin-2-yl)methyl)-9H-purin-8-yl)phenoxy)azetidin-1-yl)propan-1-one]", "values": [
      {"measurement": "IC50", "setting": "[1]", "value": 158, "unit": "nM"}
    ]},
    {"compound": "CNC(=O)COc1ccc(-c2nc3c(OC4(C)CC4)ncnc3n2Cc2cc(Cl)ccn2)c(Cl)c1", "note": "[Example T51, 2-(3-chloro-4-(9-((4-chloropyridin-2-yl)methyl)-6-(1-methylcyclopropoxy)-9H-purin-8-yl)phenoxy)-N-methylacetamide]", "values": [
      {"measurement": "IC50", "setting": "[3]", "value": 158, "unit": "nM"}
    ]},
    {"compound": "Cc1ccnc(Cn2c(-c3ccc(OCCN4CCOCC4=O)cc3Cl)nc3c(OC4(C)CC4)ncnc32)c1", "note": "[Example T481, 4-(2-(3-chloro-4-(6-(1-methylcyclopropoxy)-9-((4-methylpyridin-2-yl)methyl)-9H-purin-8-yl)phenoxy)ethyl)morpholin-3-one]", "values": [
      {"measurement": "IC50", "setting": "[1]", "value": 316, "unit": "nM"}
    ]},
    {"compound": "Cc1ccnc(Cn2c(-c3ccc(C(=O)N4C[C@@H]5C[C@H]4CO5)cc3Cl)nc3c(OC4(C)CC4)ncnc32)c1", "note": "[Example T416, ((1S,4S)-2-oxa-5-azabicyclo[2.2.1]heptan-5-yl)(3-chloro-4-(6-(1-methylcyclopropoxy)-9-((4-methylpyridin-2-yl)methyl)-9H-purin-8-yl)phenyl)methanone]", "values": [
      {"measurement": "IC50", "setting": "[1]", "value": 1580, "unit": "nM"}
    ]},
    {"compound": "COC(=O)Nc1ccc(-c2nc3c(OC4(C)CC4)ncnc3n2Cc2cc(C)ccn2)c(Cl)c1", "note": "[Example T62, methyl (3-chloro-4-(6-(1-methylcyclopropoxy)-9-((4-methylpyridin-2-yl)methyl)-9H-purin-8-yl)phenyl)carbamate]", "values": [
      {"measurement": "IC50", "setting": "[3]", "value": 251, "unit": "nM"}
    ]},
    {"compound": "CC1(Oc2ncnc3c2nc(-c2ccc(CC(N)=O)cc2Cl)n3Cc2ccnc(C#N)c2)CC1", "note": "[Example T40, 2-(3-chloro-4-(9-((2-cyanopyridin-4-yl)methyl)-6-(1-methylcyclopropoxy)-9H-purin-8-yl)phenyl)acetamide]", "values": [
      {"measurement": "IC50", "setting": "[3]", "value": 5010, "unit": "nM"}
    ]},
    {"compound": "Cc1ccnc(Cn2c(-c3ccc(OC4CCc5nccn5C4)cc3Cl)nc3c(OC4(C)CC4)ncnc32)c1", "note": "(single isomer, unassigned) [Example T536, 8-(2-chloro-4-((5,6,7,8-tetrahydroimidazo[1,2-a]pyridin-6-yl)oxy)phenyl)-6-(1-methylcyclopropoxy)-9-((4-methylpyridin-2-yl)methyl)-9H-purine]", "values": [
      {"measurement": "IC50", "setting": "[2]", "value": 501, "unit": "nM"}
    ]},
    {"compound": "Cc1ccnc(Cn2c(-c3ccc(CC(=O)N4CC[C@](C)(O)C4)cc3Cl)nc3c(OC4(C)CC4)ncnc32)c1", "note": "[Example T575, (S)-2-(3-chloro-4-(6-(1-methylcyclopropoxy)-9-((4-methylpyridin-2-yl)methyl)-9H-purin-8-yl)phenyl)-1-(3-hydroxy-3-methylpyrrolidin-1-yl)ethan-1-one]", "values": [
      {"measurement": "IC50", "setting": "[4]", "value": 316, "unit": "nM"}
    ]},
    {"compound": "CO[C@H]1CCN(C(=O)c2ccc(-c3nc4c(OC5(C)CC5)ncnc4n3Cc3cc(C)ccn3)c(Cl)c2)C1", "note": "[Example T465, (S)-(3-chloro-4-(6-(1-methylcyclopropoxy)-9-((4-methylpyridin-2-yl)methyl)-9H-purin-8-yl)phenyl)(3-methoxypyrrolidin-1-yl)methanone]", "values": [
      {"measurement": "IC50", "setting": "[1]", "value": 631, "unit": "nM"}
    ]},
    {"compound": "CC1(Oc2ncnc3c2nc(-c2ccc(CC(N)=O)cc2Cl)n3Cc2cccnc2C(F)(F)F)CC1", "note": "[Example T37, 2-(3-chloro-4-(6-(1-methylcyclopropoxy)-9-((2-(trifluoromethyl)pyridin-3-yl)methyl)-9H-purin-8-yl)phenyl)acetamide]", "values": [
      {"measurement": "IC50", "setting": "[3]", "value": "> 10000", "unit": "nM"}
    ]},
    {"compound": "Cc1nc(C)c(Cn2c(-c3ccc(CC(N)=O)cc3Cl)nc3c(OC4(C)CC4)ncnc32)s1", "note": "[Example T25, 2-(3-chloro-4-(9-((2,4-dimethylthiazol-5-yl)methyl)-6-(1-methylcyclopropoxy)-9H-purin-8-yl)phenyl)acetamide]", "values": [
      {"measurement": "IC50", "setting": "[3]", "value": 1000, "unit": "nM"}
    ]},
    {"compound": "COc1ccnc(Cn2c(-c3ccc(CC(N)=O)cc3Cl)nc3c(OC4(C)CC4)ncnc32)c1", "note": "[Example T63, 2-(3-chloro-4-(9-((4-methoxypyridin-2-yl)methyl)-6-(1-methylcyclopropoxy)-9H-purin-8-yl)phenyl)acetamide]", "values": [
      {"measurement": "IC50", "setting": "[3]", "value": 1000, "unit": "nM"}
    ]},
    {"compound": "Cc1ccnc(Cn2c(-c3ccc(OCC(=O)N4CCC[C@H](F)C4)cc3Cl)nc3c(OC4(C)CC4)ncnc32)c1", "note": "[Example T552, (S)-2-(3-chloro-4-(6-(1-methylcyclopropoxy)-9-((4-methylpyridin-2-yl)methyl)-9H-purin-8-yl)phenoxy)-1-(3-fluoropiperidin-1-yl)ethan-1-one]", "values": [
      {"measurement": "IC50", "setting": "[2]", "value": 158, "unit": "nM"}
    ]},
    {"compound": "CC(CCOc1ccc(-c2nc3c(OC4(C)CC4)ncnc3n2Cc2cccc(F)c2F)c(Cl)c1)C(=O)O", "note": "(single isomer, unassigned) [Example T261, 4-(3-chloro-4-(9-(2,3-difluorobenzyl)-6-(1-methylcyclopropoxy)-9H-purin-8-yl)phenoxy)-2-methylbutanoic acid]", "values": [
      {"measurement": "IC50", "setting": "DLD-1, DLD-1 BRCA2-/- proliferation, column head only partly shown, read-out: POLQ PD Prolif Lumin (converted)", "value": 631, "unit": "nM"}
    ]},
    {"compound": "CC1(Oc2ncnc3c2nc(-c2ccc(CCCCC(=O)O)cc2Cl)n3Cc2ccccc2C#N)CC1", "note": "[Example U20, 5-(3-chloro-4-(9-(2-cyanobenzyl)-6-(1-methylcyclopropoxy)-9H-purin-8-yl)phenyl)pentanoic acid]", "values": [
      {"measurement": "IC50", "setting": "[5]", "value": 251, "unit": "nM"}
    ]},
    {"compound": "CC1(Oc2ncnc3c2nc(-c2ccc(CC(N)=O)cc2Cl)n3Cc2cc(F)ccc2C#N)CC1", "note": "[Example T79, 2-(3-chloro-4-(9-(2-cyano-5-fluorobenzyl)-6-(1-methylcyclopropoxy)-9H-purin-8-yl)phenyl)acetamide]", "values": [
      {"measurement": "IC50", "setting": "[3]", "value": 158, "unit": "nM"}
    ]},
    {"compound": "C#CCNC(=O)c1ccc(-c2nc3c(OC4(C)CC4)ncnc3n2Cc2cc(C)ccn2)c(Cl)c1", "note": "[Example T152, 3-chloro-4-(6-(1-methylcyclopropoxy)-9-((4-methylpyridin-2-yl)methyl)-9H-purin-8-yl)-N-(prop-2-yn-1-yl)benzamide]", "values": [
      {"measurement": "IC50", "setting": "[2]", "value": 398, "unit": "nM"}
    ]},
    {"compound": "Cc1ccnc(Cn2c(-c3ccc(OC[C@@H]4CNC(=O)CO4)cc3Cl)nc3c(OC4(C)CC4)ncnc32)c1", "note": "[Example T324, (S)-6-((3-chloro-4-(6-(1-methylcyclopropoxy)-9-((4-methylpyridin-2-yl)methyl)-9H-purin-8-yl)phenoxy)methyl)morpholin-3-one]", "values": [
      {"measurement": "IC50", "setting": "[6]", "value": 398, "unit": "nM"}
    ]},
    {"compound": "CC1(Oc2cccc3c2nc(-c2ccc(OCCN4CCNCC4)cc2Cl)n3Cc2cccc(Cl)c2)CCC1", "note": "[Example T611, 2-(2-chloro-4-(2-(piperazin-1-yl)ethoxy)phenyl)-1-(3-chlorobenzyl)-4-(1-methylcyclobutoxy)-1H-benzo[d]imidazole]", "values": [
      {"measurement": "IC50", "setting": "[4]", "value": 316, "unit": "nM"}
    ]},
    {"compound": "Cc1cc(Cn2c(-c3ccc(CC(N)=O)cc3Cl)nc3c(OC4(C)CC4)ncnc32)n(C)n1", "note": "[Example T32, 2-(3-chloro-4-(9-((1,3-dimethyl-1H-pyrazol-5-yl)methyl)-6-(1-methylcyclopropoxy)-9H-purin-8-yl)phenyl)acetamide]", "values": [
      {"measurement": "IC50", "setting": "[3]", "value": 2000, "unit": "nM"}
    ]},
    {"compound": "Cc1ccc(Cn2c(-c3ccc(CC(N)=O)cc3Cl)nc3c(OC4(C)CC4)ncnc32)cc1", "note": "[Example T100, 2-(3-chloro-4-(9-(4-methylbenzyl)-6-(1-methylcyclopropoxy)-9H-purin-8-yl)phenyl)acetamide]", "values": [
      {"measurement": "IC50", "setting": "[3]", "value": 794, "unit": "nM"}
    ]},
    {"compound": "COc1cc(Cl)cc(Cn2c(-c3ccc(OCCC(C)C(=O)O)cc3Cl)nc3c(OC4(C)CC4)ncnc32)c1", "note": "(single isomer, unassigned) [Example T446, 4-(3-chloro-4-(9-(3-chloro-5-methoxybenzyl)-6-(1-methylcyclopropoxy)-9H-purin-8-yl)phenoxy)-2-methylbutanoic acid]", "values": [
      {"measurement": "IC50", "setting": "[1]", "value": 316, "unit": "nM"}
    ]},
    {"compound": "Cc1ccnc(Cn2c(-c3ccc(N4C[C@H]5CCN[C@H]5C4)cc3Cl)nc3c(OC4(C)CC4)ncnc32)c1", "note": "[Example T494, 8-(2-chloro-4-((3aR,6aR)-hexahydropyrrolo[3,4-b]pyrrol-5(1H)-yl)phenyl)-6-(1-methylcyclopropoxy)-9-((4-methylpyridin-2-yl)methyl)-9H-purine]", "values": [
      {"measurement": "IC50", "setting": "[2]", "value": 316, "unit": "nM"}
    ]},
    {"compound": "Cc1ccnc(Cn2c(-c3ccc(OCC(=O)N4CCC4)cc3Cl)nc3c(OC4(C)CC4)ncnc32)c1", "note": "[Example T312, 1-(azetidin-1-yl)-2-(3-chloro-4-(6-(1-methylcyclopropoxy)-9-((4-methylpyridin-2-yl)methyl)-9H-purin-8-yl)phenoxy)ethan-1-one]", "values": [
      {"measurement": "IC50", "setting": "[6]", "value": 200, "unit": "nM"}
    ]},
    {"compound": "CC(CCOc1ccc(-c2nc3c(OC4(C)CC4)ncnc3n2Cc2cc(Cl)ccc2OC(F)F)c(Cl)c1)C(=O)O", "note": "(racemic) [Example U60, 4-(3-chloro-4-(9-(5-chloro-2-(difluoromethoxy)benzyl)-6-(1-methylcyclopropoxy)-9H-purin-8-yl)phenoxy)-2-methylbutanoic acid]", "values": [
      {"measurement": "IC50", "setting": "[5]", "value": 126, "unit": "nM"}
    ]}
  ]
}
